In patent US8729286B2, “Platinum compounds as treatment for cancers, and related methods, kits, and compositions” (Massachusetts Institute of Technology, priority 2012, dated 2014):
“Also recorded” adds a separate entry of the source.

Columns and labels:
A549 (human lung cancer) = test: MTT cytotoxicity assay, A549; type: cell-based; details: continuous 72 h
Procedure: (§1) The cells were treated for a continuous 72 h period. The resulting 50% growth inhibitory concentration (IC50) values are summarized in Table 4 and graphically depicted in FIG. 5.
(§2) HeLa (human cervical cancer), A549 (human lung cancer), U2OS (osteosarcoma), MCF-7 (human breast cancer) cells were grown as adherent monolayers in growth medium consisting of Dulbecco's Modified Eagle Medium (DMEM) supplemented with 10% fetal bovine serum (FBS) and 1% penicillin/streptomycin. The cultures were grown in 25 cm^2 flasks in an incubator at 37° C. with a humidified atmosphere composed of 5% CO2.
(§3) Trypsinized cells were seeded into a 96-well plate at a cell density of 2000 cells/well in 200 μL of growth medium and incubated for 24 h. The medium was then removed and 200 μL new growth medium containing various concentrations of the platinum complexes was added. After 72 h, the medium was removed, 200 μL of a 0.8 mg/mL solution of MTT in DMEM was added, and the plate was incubated further for 4 h. The DMEM/MTT mixture was aspirated and 200 μL of DMSO with 10% pH 10.5 glycine buffer was added to dissolve the resulting purple formazan crystals. The absorbance of the plates was read at 555 nm. Absorbance values were normalized to the platinum-free control wells and plotted as [Pt] versus % viability. IC50 values were interpolated from the resulting curves. The reported IC50 values are the averages from at least three independent experiments, which each consisted of six replicates per concentration level.

[1] = tested on: nuclear DNA of HeLa cells; test: Intracellular DNA platination in HeLa cells by GFAAS; type: cell-based, human; details: 100 μM for 4 h, then 16 h platinum-free medium
Procedure: Because platinum-based drugs exert their cytotoxic effects by the formation of DNA cross-links, the extent to which 1-5 bind to intracellular DNA was measured. Cells were treated with 100 μM of the platinum complexes for 4 h and then incubated for an additional 16 h in platinum-free growth medium. The nuclear DNA was isolated, and the quantity of bound platinum was measured by GFAAS.
Five million HeLa cells were seeded in a 100 mm Petri dish containing 9 mL of growth medium. On the following day, the cells were treated with the platinum complex at 100 μM concentration for 4 h. The growth medium was then replaced with platinum-free medium, and the cells were incubated for an additional 16 h. Cells, both floating and attached, were collected and combined. Trypsin (2 mL) was used to detach the cells. The combined cells were centrifuged for 5 min at 4° C., and the resulting cell pellet was washed twice with 3 mL of ice-cold PBS. DNAzol (1 mL, genomic DNA isolation reagent, MRC), containing 100 μg/mL RNase A, was used to lyse the cell pellet. DNA was precipitated with 0.5 mL of absolute ethanol, washed 2 times with 75% ethanol (0.75 mL), and redissolved in 200 μL of 8 mM NaOH. The DNA concentration was determined by UV-visible spectroscopy, and platinum was quantified by GFAAS. The reported values are the average of at least three independent experiments with the error reported as the standard deviation.

[2] = Solution stability in pH 7.4 PBS at 37° C. by NMR spectroscopy; type: physicochemical; details: for stability in pH 7.4 PBS (1H NMR spectra): up to 25 days; for half-life of decomposition in pH 7.4 PBS: NMR, first-order fit
Procedure: (§4) The stabilities of 1-5 in water and pH 7.4 phosphate buffered saline (PBS) at 37° C. were determined by NMR spectroscopy. […] Over the course of this reaction, the pH changed from 7.5 to 6.3. For 4, the rate of decomposition was quicker. […] The pH of this solution remained at 7.5 for the duration of the experiment.
In pH 7.4 PBS, the rates of decomposition increased. The half-lives of 2 and 4 in this medium were 3.4 and 1.8 days, respectively. For 4, the final product was the same as that observed in the aquation in non-buffered water characterized by a ^19F NMR chemical shift at −76.6 ppm. […] Although the major final product was the same as that observed for the aquation in pure water (^1H δ=2.22 ppm), two other minor products were observed by ^1H NMR spectroscopy with CH3 proton resonances at 1.91 and 1.56 ppm.
(§5) The platinum complexes were dissolved in water or pH 7.4 PBS containing 10% D2O to a typical concentration of 1 mM. The solutions were transferred to NMR tubes and incubated in a 37° C. water bath. ^1H and ^19F NMR spectra were obtained at various type points during the incubation. A small amount of 1,4-dioxane (δ=3.75 ppm) was included in the samples as an internal standard for referencing the ^1H NMR spectra and a sealed capillary containing aqueous KF (δ=−120.46 ppm) was used for referencing ^19F NMR spectra. The methyl group of 2 in the ^1H NMR spectra was integrated relative to the 1,4-dioxane reference at different time points and used for kinetic analyses. The trifluoromethyl group of 4 in the ^19F NMR spectra was integrated relative to the KF standard at different time points and used for kinetic analyses. Under the assumption of first-order kinetics, approximate half-lives were determined by fitting a line to a plot of ln [Pt] versus time and using the integrated first-order rate law, ln [Pt]=−kt+[Pt]o and the relationship, t1/2=ln 2/k, where [Pt]c, is the starting concentration of complex, k is the pseudo first-order rate constant, t is time, and t1/2 is the half-life. Water suppression for ^1H NMR spectra was accomplished with presaturation. The pH of the solutions was measured at the beginning and end of the desired incubation time using a DG-111-SG glass electrode calibrated with standard buffers.

[3] = tested on: HeLa (human cervical cancer); test: MTT cytotoxicity assay, HeLa; type: cell-based; details: continuous 72 h
Procedure: as §1, §2, §3

[4] = tested on: MCF-7 (human breast cancer); test: MTT cytotoxicity assay, MCF-7; type: cell-based; details: continuous 72 h
Procedure: as §1, §2, §3

[5] = Solution stability in water at 37° C. by NMR spectroscopy; type: physicochemical; details: for stability in water (1H NMR spectra): up to 25 days; for half-life of decomposition in water: NMR, first-order fit
Procedure: as §4, §5

[6] = tested on: U2OS (human osteosarcoma); test: MTT cytotoxicity assay, U2OS; type: cell-based; details: continuous 72 h
Procedure: as §1, §2, §3

HeLa cells = test: Cellular uptake in HeLa cells by GFAAS; type: cell-based, human; details: 10 μM, 4 h exposure
Procedure: The cellular uptake scales with the lipophilicity of the compound in an exponential fashion (FIG. 6). The most lipophilic complex, 5, is taken up to the largest extent (520±80 ng Pt/10^6 cells), whereas the least lipophilic complex is taken up to the least extent (6±2 ng Pt/10^6 cells).
The total platinum uptake per cell was determined using slight modifications of a previously described protocol. In two 6-well plates, 3×10^5 cells per well were seeded in 3 wells with 2.5 mL of growth medium. In one of the plates, the additional 3 wells were filled with 2.5 mL of growth medium to act as blanks for non-specific platinum adsorption on the surface of the well. After incubating for 48 h, each well in the plate containing both cells and cell-free medium was treated with 0.278 mL of a 100-μM solution of the desired compound to give an exposure concentration of 10 μM. The cells and cell-free blanks were incubated with the Pt complex for 4 h. Meanwhile, the cells in the other plate were counted with trypan blue after detachment with trypsin in order to obtain the number of cells per well. After the 4 h incubation period, the growth medium was aspirated and all six wells were washed twice with 3 mL of pH 7.4 PBS and then treated with exactly 0.5 mL of hot (≈90° C.) concentrated nitric acid for 2 h. This nitric acid was analyzed by GFAAS to determine the total Pt content per well. The amount of Pt per cell was calculated by subtracting the average amount of Pt found in the blank wells from the average amount of Pt found in the cell-containing wells and normalizing to the average number of cells per well.

[7] = up 60 days; cited from earlier work
Solubility observations = type: physicochemical; details: for solubility in water: water (cold water wash)
[8] = tested on: central nervous system (CNS) cancer cell lines; test: NCI-60 tumor cell panel screen, CNS cancer cell lines; type: cell-based; details: 10 μM single dose, 48 h, SRB assay
Procedure: (§6) Compound 4 was submitted to the NCI in July 2011 for single-dose testing in the NCI-60 tumor cell screen. These tests were carried out by the NCI using their established protocols.

[9] = tested on: HeLa, A549, U2OS, and MCF-7 cell lines; test: MTT cytotoxicity assay, summary over the four cell lines; type: cell-based, human; details: 72 h, mean of HeLa, read-out: average IC50 value in the four cell lines tested
Procedure: as §1, §2
as §3, with “The reported IC50 values are the averages from at least three independent experiments, which each consisted of six replicates per concentration level.” left out

[10] = tested on: NCI-60 tumor cell panel (60 cell lines); test: NCI-60 tumor cell panel screen, single dose; type: cell-based; details: 10 μM single dose, 48 h, SRB assay, relative to complex-free control
Procedure: as §6

## CC1=CC(C)=[O+][Pt-2]([NH3+])([NH3+])[O]1.CC1=CC(C)=[O+][Pt-2]([NH3+])([NH3+])[O]1.O=S(=O)([O-])[O-] (stereo not shown) [Compound 1, [Pt(acac)(NH3)2](SO4)0.5]
A549 (human lung cancer)
  IC50: 28 ± 9 µM
[1]
  Pt/DNA: 0.063 ± 0.012 pmol/µg
[2]
  stability in pH 7.4 PBS (1H NMR spectra): no changes; also recorded: no sign of decomposition
[3]
  IC50: 32 ± 5 µM
[4]
  IC50: 76 ± 2 µM
[5]
  stability in water (1H NMR spectra): no changes; also recorded: no sign of decomposition
[6]
  IC50: 24 ± 2 µM
HeLa cells
  HeLa Cellular Uptake: 6 ± 2 ng Pt/10^6 cells

## N.N.O=C([O-])C1(C(=O)[O-])CCC1.[Pt+2] [carboplatin]
[7]
  decomposition in water: no decomposition

## N.N.[Cl][Pt][Cl] [cisplatin, cis-diamminedichloroplatinum(II), reference compound]
A549 (human lung cancer)
  IC50: 3.2 ± 0.6 µM
[1]
  Pt/DNA: 1.58 ± 0.97 pmol/µg
[3]
  IC50: 2.1 ± 0.1 µM
[4]
  IC50: 14 ± 3 µM
[6]
  IC50: 5 ± 2 µM
HeLa cells
  HeLa Cellular Uptake: 14 ± 2 ng Pt/10^6 cells

## CC1=CC(c2ccccc2)=[O+][Pt-2]([NH3+])([NH3+])[O]1.O=[N+]([O-])[O-] (stereo not shown) [Compound 3, [Pt(bzac)(NH3)2](NO3)]
A549 (human lung cancer)
  IC50: 7 ± 2 µM
[1]
  DNA platination: ≈ 0.3 pmol Pt/μg DNA
  Pt/DNA: 0.35 ± 0.24 pmol/µg
[2]
  stability in pH 7.4 PBS (1H NMR spectra): no changes; also recorded: no sign of decomposition
[3]
  IC50: 24 ± 4 µM
[4]
  IC50: 33 ± 6 µM
[5]
  stability in water (1H NMR spectra): no changes; also recorded: no sign of decomposition
Solubility observations
  solubility in water: only sparingly soluble in water
[6]
  IC50: 8 ± 2 µM
HeLa cells
  HeLa Cellular Uptake: 83 ± 8 ng Pt/10^6 cells

## O=[N+]([O-])[O-].[NH3+][Pt-2]1([NH3+])[O]C(C(F)(F)F)=CC(c2ccccc2)=[O+]1 (stereo not shown) [Compound 4, [Pt(tfbz)(NH3)2](NO3)]
A549 (human lung cancer)
  IC50: 1.3 ± 0.2 µM
[8]
  average cell growth in CNS cancer cell lines: 64.52%
[1]
  Pt/DNA: 14 ± 3 pmol/µg
[9]
  IC50: 2.6 µM
[2]
  half-life of decomposition in pH 7.4 PBS: 1.8 days
[3]
  IC50: 3 ± 1 µM
[4]
  IC50: 4.3 ± 0.3 µM
[5]
  half-life of decomposition in water: 29 days
Solubility observations
  solubility in water: only sparingly soluble in water
[6]
  IC50: 1.6 ± 0.5 µM
[10]
  average cell growth percentage of the 60 cell lines: 89.65%
HeLa cells
  HeLa Cellular Uptake: 160 ± 20 ng Pt/10^6 cells

## CC1=CC(C(F)(F)F)=[O+][Pt-2]([NH3+])([NH3+])[O]1.CC1=CC(C(F)(F)F)=[O+][Pt-2]([NH3+])([NH3+])[O]1.O=S(=O)([O-])[O-] (stereo not shown) [Compound 2, [Pt(tfac)(NH3)2](SO4)0.5]
A549 (human lung cancer)
  IC50: 2.2 ± 0.6 µM
[1]
  DNA platination: ≈ 0.3 pmol Pt/μg DNA
  Pt/DNA: 0.30 ± 0.07 pmol/µg
[2]
  half-life of decomposition in pH 7.4 PBS: 3.4 days
[3]
  IC50: 2.9 ± 0.7 µM
[4]
  IC50: 15 µM
[5]
  half-life of decomposition in water: 58 days
Solubility observations; aqueous and organic solvent
  solubility in aqueous and organic solvent: low solubility
[6]
  IC50: 4.1 ± 0.8 µM
HeLa cells
  HeLa Cellular Uptake: 29 ± 9 ng Pt/10^6 cells

## O=[N+]([O-])[O-].[NH3+][Pt-2]1([NH3+])[O]C(c2ccccc2)=CC(c2ccccc2)=[O+]1 (stereo not shown) [Compound 5, [Pt(dbm)(NH3)2](NO3)]
A549 (human lung cancer)
  IC50: 1.3 ± 0.3 µM
[1]
  Pt/DNA: 23 ± 10 pmol/µg
[2]
  stability in pH 7.4 PBS (1H NMR spectra): no changes; also recorded: no sign of decomposition
[3]
  IC50: 6.7 ± 0.7 µM
[4]
  IC50: 3.1 ± 0.5 µM
[5]
  stability in water (1H NMR spectra): no changes; also recorded: no sign of decomposition
[6]
  IC50: 2.7 ± 0.7 µM
HeLa cells
  HeLa Cellular Uptake: 520±80 ng Pt/10^6 cells
